Source: patent US9957298B2, “Peptides as oxytocin agonists” (Hoffmann-La Roche Inc., priority 2014, dated 2018)
Starred links: 1 amine or outer side, 2 acyl side, 3 side chain; linkers in the order of their positions; H or OH if unused. Positions of bridges follow the written chain, without caps; N, C: chain ends. Non-standard residues stand in square brackets, D forms with d. Residues, ends and D or L forms follow the SMILES beside them. X1 = N[C@H](CC(=O)[*:1])C(=O)[*:2]; d(αMeL) = CC(C)C[C@@](C)(N)C(=O)O; 2Thi = N[C@@H](Cc1cccs1)C(=O)O; Cha = N[C@@H](CC1CCCCC1)C(=O)O; Suc = O=C(CCC(=O)[*:2])[*:1]; NcPrGly = O=C(O)CNC1CC1; Dap = NC[C@H](N)C(=O)O; Aib = CC(C)(N)C(=O)O; Sar = CNCC(=O)O

Target: T1, human Oxytocin (OTR) receptor (Homo sapiens, UniProt P30559)
T1 construct: expressed in transfected cells
T1 sequence (P30559 1-389): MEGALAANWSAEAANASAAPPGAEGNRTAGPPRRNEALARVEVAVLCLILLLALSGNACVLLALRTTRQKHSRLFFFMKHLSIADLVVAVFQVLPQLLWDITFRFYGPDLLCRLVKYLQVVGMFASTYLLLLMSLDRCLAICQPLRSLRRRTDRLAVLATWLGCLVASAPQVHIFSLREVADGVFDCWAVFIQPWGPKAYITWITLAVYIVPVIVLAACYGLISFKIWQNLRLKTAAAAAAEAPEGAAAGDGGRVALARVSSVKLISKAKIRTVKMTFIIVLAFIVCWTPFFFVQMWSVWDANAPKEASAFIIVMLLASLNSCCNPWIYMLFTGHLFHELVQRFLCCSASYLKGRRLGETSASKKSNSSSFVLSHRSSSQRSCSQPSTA
Experiment: Calcium flux assay (FLIPR), agonist mode, CHO cells expressing human oxytocin receptor
Type: cell-based
Settings: for EC50: CHO cells, human OTR, calcium flux FLIPR, read-out: hOT EC50; for Emax: CHO, read-out: hOT efficacy (%); for Emax / hOT efficacy (%): maximum response normalized to endogenous full agonist = 100%
Excerpt: Chines Hamster Ovary (CHO) cells were transfected with expression plasmids encoding either the human V1a, the human Oxytocin (OTR) or the human V2 receptor, the later in combination with the chimeric Gqs5 G protein to redirect the signal to Calcium flux. Stable cells were cloned by limiting dilution to yield monoclonal cell lines expressing either human V1a, human V2+Gqs5 or human OTR receptors and selected based on functional responses detected on a fluorometric imaging plate reader (FLIPR) detecting Calcium flux in the cell after receptor activation. The stable cell lines were grown in F-12 K Nutrient Mixture (Kaighns Modification), containing 10% foetal bovine serum (FBS), 1% penicillin-streptomycin, 1% L-[…], 200 ug/ml Geneticin at 37° C. in a 10% CO2 incubator at 95% humidity.
On the afternoon before the assay, cells were plated at a density of 50,000 cells/well into black 96 well plates with clear bottoms to allow cell inspection and fluorescence measurements from the bottom of each well. The density of cells was sufficient to yield a confluent monolayer the next day. Hanks balanced salt solution, without phenol red, containing 20 mM HEPES (pH 7.3) and 2.5 mM probenecid (assay buffer) was prepared fresh for each experiment. Compound dilutions were made using a Beckman Biomek 2000 laboratory automation workstation, in assay buffer containing 1% DMSO. The dye-loading buffer consisted of a final concentration of 2 μM Fluo-4-AM (dissolved in DMSO and pluronic acid) in assay buffer. The existing culture media was removed from the wells and 100 μl of the dye-loading buffer was added to each well and incubated for approximately 60 min at 37° C. in a 5% CO2 incubator at 95% humidity. Once dye-loaded, the cells were washed thoroughly on an Embla cell washer with the assay buffer to remove any unincorporated dye. Exactly 100 μl assay buffer was left in each well.
Each 96 well plate containing dye-loaded cells was placed into the FLIPR machine and the laser intensity set to a suitable level to detect low basal fluorescence. To test compounds as agonists, 25 μl diluted compound was added to the plate 10 seconds into the fluorescent measurements and fluorescent response was recorded for 5 minutes. The fluorescence data was normalized to the endogenous full agonist dose-response set at 100% for the maximum response and 0% for the minimum. Each agonist concentration-response curve was constructed using a four parameter logistic equation with Microsoft Excel XLFit as follows: Y=Minimum+((Maximum−Minimum)/(1+10^(LogEC50-X)nH)), where y is the % normalized fluorescence, minimum is the minimum y, maximum is the maximum y, logEC50 is the log10 concentration which produces 50% of the maximum induced fluorescence, x is the log10 of the concentration of the agonist compound and H is the slope of the curve (the Hill Coefficient). The maximum value gives the efficacy of the agonist test compound in percentage. The concentration of agonist that produced a half-maximal response is represented by the EC50 value, the logarithm of which yielded the pEC50 value.

SMILES | EC50 | Emax | hOT efficacy (%)
CC[C@H](C)[C@@H]1NC(=O)[C@H](Cc2ccc(O)cc2)NC(=O)CCC(=O)NC[C@@H](C(=O)N2CCC[C@H]2C(=O)N[C@H](C(=O)NCC(N)=O)C(C)C)NC(=O)[C@H](CC(N)=O)NC(=O)[C@H](CCC(N)=O)NC1=O [Example 12] (YIQN[Dap]PVG-NH2; linker N-5 via Suc) | 1.6 nM | 130% | –
CC[C@H](C)[C@@H]1NC(=O)[C@H](Cc2ccc(O)cc2)NC(=O)CCC(=O)NC[C@@H](C(=O)N2CCC[C@H]2C(=O)N[C@@H](Cc2ccccc2)C(=O)NCC(N)=O)NC(=O)[C@H](CC(N)=O)NC(=O)[C@H](CCC(N)=O)NC1=O [Example 14] (YIQN[Dap]PFG-NH2; linker N-5 via Suc) | 6 nM | – | 122%
CC[C@H](C)[C@@H]1NC(=O)[C@H](Cc2ccc(O)cc2)NC(=O)CCC(=O)NC[C@@H](C(=O)N(C)CC(=O)N[C@@H](Cc2cnc[nH]2)C(=O)NCC(N)=O)NC(=O)[C@H](CC(N)=O)NC(=O)[C@H](CCC(N)=O)NC1=O [Example 35] (YIQN[Dap][Sar]HG-NH2; linker N-5 via Suc) | 4 nM | – | 111%
CC[C@H](C)[C@@H]1NC(=O)[C@H](Cc2ccc(O)cc2)NC(=O)CCC(=O)NC[C@@H](C(=O)N(C)CC(=O)N[C@@H](Cc2c[nH]c3ccccc23)C(=O)NCC(N)=O)NC(=O)[C@H](CC(N)=O)NC(=O)[C@H](CCC(N)=O)NC1=O [Example 36] (YIQN[Dap][Sar]WG-NH2; linker N-5 via Suc) | 2 nM | – | 111%
CC[C@@H](C)[C@@H](NC(=O)CN(C(=O)[C@@H]1CNC(=O)CCC(=O)N[C@@H](Cc2ccc(O)cc2)C(=O)N[C@@H]([C@@H](C)CC)C(=O)N[C@@H](CCC(N)=O)C(=O)N[C@@H](CC(N)=O)C(=O)N1)C1CC1)C(=O)NCC(N)=O [Example 42] (YIQN[Dap][NcPrGly][dI]G-NH2; linker N-5 via Suc) | 0.37 nM | 115% | –
CC[C@H](C)[C@@H]1NC(=O)[C@H](Cc2ccc(O)cc2)NC(=O)CCC(=O)NC[C@@H](C(=O)N(CC(=O)N[C@](C)(CC(C)C)C(=O)NCC(N)=O)C2CC2)NC(=O)[C@H](CC(N)=O)NC(=O)[C@H](CCC(N)=O)NC1=O [Example 39] (YIQN[Dap][NcPrGly][d(αMeL)]G-NH2; linker N-5 via Suc) | 1.3 nM | 108% | –
CC[C@H](C)[C@@H]1NC(=O)[C@H](Cc2ccc(O)cc2)NC(=O)C[C@@H](N)C(=O)NC[C@@H](C(=O)N(C)CC(=O)N[C@@H](CC(C)C)C(=O)NCC(N)=O)NC(=O)[C@H](CC(N)=O)NC(=O)[C@H](CCC(N)=O)NC1=O [Example 4] (YIQN[Dap][Sar]LG-NH2; linker N-5 via X1) | 5 nM | – | 126%
CC[C@H](C)[C@@H]1NC(=O)[C@H](Cc2ccc(O)cc2)NC(=O)CCC(=O)NC[C@@H](C(=O)N(C)CC(=O)N[C@@H](CCC(N)=O)C(=O)NCC(N)=O)NC(=O)[C@H](CC(N)=O)NC(=O)[C@H](CCC(N)=O)NC1=O [Example 32] (YIQN[Dap][Sar]QG-NH2; linker N-5 via Suc) | 5 nM | – | 112%
CC[C@H](C)[C@@H]1NC(=O)[C@H](Cc2ccc(O)cc2)NC(=O)CCC(=O)NC[C@@H](C(=O)N(CC(=O)N[C@@H](C(=O)NCC(N)=O)C(C)C)C2CC2)NC(=O)[C@H](CC(N)=O)NC(=O)[C@H](CCC(N)=O)NC1=O [Example 40] (YIQN[Dap][NcPrGly][dV]G-NH2; linker N-5 via Suc) | 0.6 nM | 106% | –
CC[C@H](C)[C@@H]1NC(=O)[C@H](Cc2ccc(O)cc2)NC(=O)CCC(=O)NC[C@@H](C(=O)N(C)CC(=O)N[C@@H](Cc2cccs2)C(=O)NCC(N)=O)NC(=O)[C@H](CC(N)=O)NC(=O)[C@H](CCC(N)=O)NC1=O [Example 34] (YIQN[Dap][Sar][2Thi]G-NH2; linker N-5 via Suc) | 3 nM | – | 106%
CC[C@H](C)[C@@H]1NC(=O)[C@H](Cc2ccc(O)cc2)NC(=O)CCC(=O)NC[C@@H](C(=O)N(CC(=O)NC(C)(C)C(=O)NCC(N)=O)C2CC2)NC(=O)[C@H](CC(N)=O)NC(=O)[C@H](CCC(N)=O)NC1=O [Example 41] (YIQN[Dap][NcPrGly][Aib]G-NH2; linker N-5 via Suc) | 2.5 nM | 108% | –
CC[C@H](C)[C@@H]1NC(=O)[C@H](Cc2ccc(O)cc2)NC(=O)CCC(=O)NC[C@@H](C(=O)N(C)CC(=O)N[C@@H](Cc2ccccc2)C(=O)NCC(N)=O)NC(=O)[C@H](CC(N)=O)NC(=O)[C@H](CCC(N)=O)NC1=O [Example 33] (YIQN[Dap][Sar]FG-NH2; linker N-5 via Suc) | 3 nM | – | 111%
CC[C@H](C)[C@@H]1NC(=O)[C@H](Cc2ccc(O)cc2)NC(=O)CCC(=O)NC[C@@H](C(=O)N2CCC[C@H]2C(=O)N[C@@H](CCC(N)=O)C(=O)NCC(N)=O)NC(=O)[C@H](CC(N)=O)NC(=O)[C@H](CCC(N)=O)NC1=O [Example 13] (YIQN[Dap]PQG-NH2; linker N-5 via Suc) | 8 nM | – | 128%
CC[C@H](C)[C@@H]1NC(=O)[C@H](Cc2ccc(O)cc2)NC(=O)CCC(=O)NC[C@@H](C(=O)N(CC(=O)N[C@@H](CO)C(=O)NCC(N)=O)C2CC2)NC(=O)[C@H](CC(N)=O)NC(=O)[C@H](CCC(N)=O)NC1=O [Example 45] (YIQN[Dap][NcPrGly]SG-NH2; linker N-5 via Suc) | 0.8 nM | 117% | –
CC[C@H](C)[C@@H]1NC(=O)[C@H](Cc2ccc(O)cc2)NC(=O)CCC(=O)NC[C@@H](C(=O)N2CCC[C@H]2C(=O)N[C@](C)(CC(C)C)C(=O)NCC(N)=O)NC(=O)[C@H](CC(N)=O)NC(=O)[C@H](CCC(N)=O)NC1=O [Example 7] (YIQN[Dap]P[d(αMeL)]G-NH2; linker N-5 via Suc) | 3 nM | – | 101%
CC[C@H](C)[C@@H]1NC(=O)[C@H](Cc2ccc(O)cc2)NC(=O)CCC(=O)NC[C@@H](C(=O)N2CCC[C@H]2C(=O)N[C@@H](CCSC)C(=O)NCC(N)=O)NC(=O)[C@H](CC(N)=O)NC(=O)[C@H](CCC(N)=O)NC1=O [Example 8] (YIQN[Dap]PMG-NH2; linker N-5 via Suc) | 1 nM | – | 134%
CC[C@H](C)[C@@H]1NC(=O)[C@H](Cc2ccc(O)cc2)NC(=O)CCC(=O)NC[C@@H](C(=O)N2CCC[C@H]2C(=O)N[C@H](C(=O)NCC(N)=O)[C@@H](C)CC)NC(=O)[C@H](CC(N)=O)NC(=O)[C@H](CCC(N)=O)NC1=O [Example 9] (YIQN[Dap]PIG-NH2; linker N-5 via Suc) | 1 nM | – | 132%
CC[C@H](C)[C@@H]1NC(=O)[C@H](Cc2ccc(O)cc2)NC(=O)CCC(=O)NC[C@@H](C(=O)N2CCC[C@H]2C(=O)N[C@@H](CC2CCCCC2)C(=O)NCC(N)=O)NC(=O)[C@H](CC(N)=O)NC(=O)[C@H](CCC(N)=O)NC1=O [Example 18] (YIQN[Dap]P[Cha]G-NH2; linker N-5 via Suc) | 2 nM | – | 130%
